Laboratory results taken from patent US5534416A, “Fluorescent viability assay using cyclic-substituted unsymmetrical cyanine dyes” (Molecular Probes, Inc., priority 1993, dated 1996).

Assays:
DNA = experiment: Quantum yield of dye on DNA versus fluorescein; type: physicochemical; conditions: Table 2; Tris buffered saline pH 10; fluorescein assumed 0.92
From the text: ^ Quantum yield (QY) of dye on DNA (standard solution in Tris buffere
saline adjusted to pH 10) in comparison with fluorescein, which is assume
to have a quantum yield of 0.92 under the test conditions.
Factors such as degree of fluorescence enhancement with nucleic acid binding, self quenching, molar extinction coefficient, membrane permeability, intracellular partitioning, nucleic acid binding affinity, and quantum yield contribute to the overall fluorescence of nucleic acid stains in cells. Enhanced cell fluorescence obtained with Dye I is related to unexpected properties other than quantum yield alone. Quantum yield is determined as described above (foot note to Table 2). Normalized quantum yield is determined to illustrate the fold-change in quantum yield of Dye I compared with thiazole orange, a related cell-permeant dye. The normalized fluorescence values represent the quantum yield of each dye divided by the quantum yield of thiazole orange. Fluorescence per cell is also scaled to thiazole orange values for both E. coli and S. aureus to allow direct comparison between relative (normalized) quantum yield and relative (normalized) fluorescence/cell.

nucleic acids = experiment: Excitation/emission maxima of dyes complexed with nucleic acids; type: physicochemical; parameters: key: wavelength in nm; conditions: Table 2; dye complexed with nucleic acids
From the text: Dye I is lightly colored and is virtually non-fluorescent when diluted in aqueous solution according to the method of the invention. Dye I is highly membrane-permeant and labels all cells, whether live or dead. When Dye I binds with intracellular nucleic acid polymers such as DNA and RNA, the resultant dye-nucleic acid complex becomes extremely fluorescent upon illumination. The quantum yield of the preferred Dye I/DNA complex is greater than 0.02, typically greater than 0.1, preferably greater than 0.2, and more preferably greater than 0.3. Typically, Dye I combines with intracellular nucleic acids to give a green or red fluorescence. When excited at a wavelength between about 300 nm and about 500 nm, the dyes complexed with nucleic acids have an emission maximum between about 500 and about 610 nm (see Table 2). Preferably, Dye I complexed with nucleic acids has an emission maximum of between about 500 nm and about 535 nm, resulting in a true green fluorescent signal in cells of the sample where Dye I is present alone.

QY (DNA) (DNA)	EM max (nucleic acids)	EX max (nucleic acids)	Compound
0.31	–	–	CSC1=CC(=Cc2sc3ccccc3[n+]2C)c2ccccc2N1C1CCCCC1 [780 (S)]
0.43	523	502	CN1CCN(C2=CC(=Cc3sc4ccccc4[n+]3C)c3ccccc3N2c2ccccc2)CC1 [compound 856]
0.31	525	508	CN1C(=Cc2cc[n+](C3CCCCC3)c3ccccc23)Sc2ccccc21 [compound 73]
0.52	507	487	CCOC1=CC(=Cc2sc3ccccc3[n+]2C)c2ccccc2N1c1ccccc1 [compound 720]
0.12	508	489	C[n+]1c(C=C2C=C(Cl)N(c3ccccc3)c3ccccc32)oc2ccccc21 [compound 633]
–	510	471	COc1ccccc1N1C=CC(=Cc2sc3ccccc3[n+]2C)C=C1Cl [compound 616]
0.50	524	506	C[n+]1c(C=C2C=C(C3CCCCC3)N(c3ccccc3)c3ccccc32)sc2ccccc21 [compound 765]
–	504	470	C[n+]1c(C=C2C=CN(c3ccccc3)C(Cl)=C2)sc2ccccc21 [compound 578]
–	533	517	C[n+]1c(C=C2C=C(Br)N(c3ccccc3)c3ccccc32)sc2ccccc21 [compound 774]
–	611	570	CCCCC1=CC(=CC=Cc2sc3ccccc3[n+]2C)C=CN1c1ccccc1 [compound 742]
–	516	471	C[n+]1c(C=C2C=CN(c3ccccc3)C=C2)sc2ccccc21 [compound 640]
–	527	510	CN1C(=Cc2cc[n+](C3CCCCC3)c3ccccc23)Sc2ccccc21 [compound 542]
–	555	516	C[n+]1c(C=C2C=C(Sc3ccccn3)N(c3ccccc3)c3ccccc32)sc2ccccc21 [compound 853]
–	523	450	C[n+]1c(C=C2C=Cc3ccccc3N2c2ccccc2)sc2ccccc21 [compound 64]
0.58	508	486	CC(C)OC1=CC(=Cc2sc3ccccc3[n+]2C)c2ccccc2N1c1ccccc1 [compound 764]
–	611	586	COC1=CC(=CC=Cc2oc3ccccc3[n+]2C)c2ccccc2N1c1ccccc1 [compound 672]
0.52	523	505	CN1C(C2CCCCC2)=CC(=Cc2sc3ccccc3[n+]2C)c2ccccc21 [compound 6104]
–	520	483	C[n+]1c(C=C2C=C(OS(=O)(=O)C(F)(F)F)N(c3ccccc3)c3ccccc32)sc2ccccc21 [compound 854]
–	656	635	CCCCC1=CC(=CC=Cc2sc3ccccc3[n+]2C)c2ccccc2N1c1ccccc1 [compound 621]
–	518	495	C[n+]1c(C=C2C=C(Oc3ccccc3)N(c3ccccc3)c3ccccc32)sc2ccccc21 [compound 835]
0.65	–	–	CCCN(CCC)C1=CC(=Cc2sc3ccccc3[n+]2C)c2ccccc2N1c1ccccc1 [compound 776]
–	507	486	C[n+]1c(C=C2C=C(F)N(c3ccccc3)c3ccccc32)sc2ccccc21 [compound 834]
–	759	739	CCN1C(=Cc2cc(Cl)[n+](-c3ccccc3)c3ccccc23)Sc2ccccc21 [compound 200]
–	533	517	CN1C(=Cc2cc(Cl)[n+](-c3cccs3)c3ccccc23)Sc2ccccc21 [compound 830]
–	533	516	COc1ccc(N2C(Cl)=CC(=Cc3sc4ccccc4[n+]3C)c3ccccc32)cc1 [compound 582]
